The values that follow are results of earlier work, collected in PMC8549773 (Chemical Science, 2021).

The series concerns GCase. The settings on record: administered to rats.

`OC[C@H]1O[C@@H](F)[C@H](F)[C@@H](O)[C@@H]1O` [2FGlcF, 2-deoxy-2-fluoro-β-D-glucosyl fluoride]: the “GCase inactivation in organs” value is “inactivates GCase in all organs, including the brain”.
